Our source for the IC50 values is BindingDB's records for patent US10155727 (Janssen Pharmaceuticals, 2018).

pIC50: −log10 of the molar value.

In this test the target is Glutamate receptor ionotropic, NMDA 2B (Rattus norvegicus, UniProt P35439+Q00960). As to the kind of experiment: Inhibition of Specific Binding to the Rat NR1/NR2B Receptor. On the procedure:
After thawing on the day of the assay, a 5 ml membrane aliquot was centrifuged at 48000 g for 30 min at 4° C. The pellet was resuspended in 5 ml of 5 mM Tris/1 mM EDTA buffer, pH 7.4, homogenized for 30 sec at 20000 rpm with an Ultraturrax and centrifuged at 48000 g for 30 min at 4° C. This was repeated twice. […] Nonspecific binding was estimated in the presence of […]. The samples were incubated for 60 min. at 4° C.The incubation was terminated by filtration of the membrane preparations using Filtermat B (Pharmacia, Uppsala Sweden) and a Micro Cell Harvester (Skatron, Lier, Norway). The Filtermat B had been presoaked with 1% polyethylene imine and carefully washed with 50 mM Tris/HCl-buffer pH 7.7 after the filtration to separate free and bound radioactivity. […] For pipetting of the incubation mixture the robot Biomek2000 (Fa. Beckman) was used.

Sequence of Glutamate receptor ionotropic, NMDA 2B (Q00960 whole entry, one chain of several): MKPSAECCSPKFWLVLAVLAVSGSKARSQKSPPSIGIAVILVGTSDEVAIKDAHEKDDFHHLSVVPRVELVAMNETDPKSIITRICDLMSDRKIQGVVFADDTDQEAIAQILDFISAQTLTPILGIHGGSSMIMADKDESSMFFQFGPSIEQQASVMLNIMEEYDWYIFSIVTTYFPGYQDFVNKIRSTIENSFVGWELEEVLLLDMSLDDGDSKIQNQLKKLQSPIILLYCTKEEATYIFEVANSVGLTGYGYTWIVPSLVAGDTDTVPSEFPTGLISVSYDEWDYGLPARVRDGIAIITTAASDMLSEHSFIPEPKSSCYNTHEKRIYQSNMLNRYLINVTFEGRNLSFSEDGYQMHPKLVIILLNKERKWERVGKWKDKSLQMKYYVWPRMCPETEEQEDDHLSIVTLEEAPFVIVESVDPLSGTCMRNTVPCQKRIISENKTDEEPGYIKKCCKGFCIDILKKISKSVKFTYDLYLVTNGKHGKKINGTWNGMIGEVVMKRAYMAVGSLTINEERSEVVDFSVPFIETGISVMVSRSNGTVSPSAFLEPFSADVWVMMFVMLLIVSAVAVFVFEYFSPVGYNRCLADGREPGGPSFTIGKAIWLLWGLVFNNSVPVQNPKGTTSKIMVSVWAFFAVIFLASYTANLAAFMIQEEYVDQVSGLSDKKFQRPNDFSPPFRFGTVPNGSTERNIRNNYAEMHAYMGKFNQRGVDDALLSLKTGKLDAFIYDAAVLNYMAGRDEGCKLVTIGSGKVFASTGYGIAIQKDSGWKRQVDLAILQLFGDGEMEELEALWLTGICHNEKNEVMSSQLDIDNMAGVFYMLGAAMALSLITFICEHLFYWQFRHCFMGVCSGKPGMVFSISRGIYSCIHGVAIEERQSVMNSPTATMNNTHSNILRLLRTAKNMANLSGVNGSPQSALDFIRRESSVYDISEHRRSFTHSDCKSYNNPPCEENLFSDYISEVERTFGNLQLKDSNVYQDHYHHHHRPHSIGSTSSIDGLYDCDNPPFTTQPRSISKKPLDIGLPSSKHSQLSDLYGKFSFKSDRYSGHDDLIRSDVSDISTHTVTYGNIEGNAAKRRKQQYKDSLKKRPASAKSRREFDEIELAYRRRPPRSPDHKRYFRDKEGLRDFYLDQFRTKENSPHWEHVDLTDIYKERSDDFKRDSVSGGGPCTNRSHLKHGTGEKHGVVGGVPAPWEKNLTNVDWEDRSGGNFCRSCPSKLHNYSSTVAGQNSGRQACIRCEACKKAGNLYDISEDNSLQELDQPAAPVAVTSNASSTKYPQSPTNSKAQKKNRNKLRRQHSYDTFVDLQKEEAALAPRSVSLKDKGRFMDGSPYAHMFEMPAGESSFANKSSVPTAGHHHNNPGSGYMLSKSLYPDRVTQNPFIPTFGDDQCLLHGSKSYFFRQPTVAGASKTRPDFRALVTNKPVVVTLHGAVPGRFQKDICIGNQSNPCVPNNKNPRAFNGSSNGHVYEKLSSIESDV

Consider `Cn1ccc(Cn2cc(-c3cccc(C(F)(F)F)c3)cn2)n1` [US10155727, Example 49], for which the pIC50 – broadly, the IC50 on a negative log10 scale, so that one unit is a factor of ten – is 5.65. Compound `Cc1cc(Cn2cc(-c3ccc(C(F)(F)F)cc3)cn2)n(C)n1` [US10155727, Example 51] gave a pIC50 of 5.04.
